In ChEMBL document CHEMBL1201862, “PubChem BioAssay data set” (2004) one finds AC50, IC50 and EC50 data, which are given here for eleven compounds.

The source made the active and inactive calls.

The nature of data set [1]: CEM21 lymphoblast cell cytotoxicity, dose response, cytotoxicity control for viral fusion inhibitor project, CellTiter-Glo luminescence, cherry-picked (AID 652042).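 Further: potency for signal decrease meaning cytotoxicity.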 Format: functional, cell-based.
A short description of data set [2]: ZM109 Env clade C HIV-1 fusion inhibitors, dose response, HeLa effector, CEM target cells, luciferase, cherry-pick (AID 652058). Format: functional, cell-based.
Data set [3] can be described thus: inhibitors of HIV Env-driven cell fusion, dose response, cherry-pick (AID 652057). The class given is functional, cell-based.
The target of the next data set is T1, Cytochrome P450 1A2 (Homo sapiens, UniProt P05177).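 Further: PubChem cytochrome P450 panel assay, CYP1A2 panel member.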
T1 sequence (P05177 whole entry): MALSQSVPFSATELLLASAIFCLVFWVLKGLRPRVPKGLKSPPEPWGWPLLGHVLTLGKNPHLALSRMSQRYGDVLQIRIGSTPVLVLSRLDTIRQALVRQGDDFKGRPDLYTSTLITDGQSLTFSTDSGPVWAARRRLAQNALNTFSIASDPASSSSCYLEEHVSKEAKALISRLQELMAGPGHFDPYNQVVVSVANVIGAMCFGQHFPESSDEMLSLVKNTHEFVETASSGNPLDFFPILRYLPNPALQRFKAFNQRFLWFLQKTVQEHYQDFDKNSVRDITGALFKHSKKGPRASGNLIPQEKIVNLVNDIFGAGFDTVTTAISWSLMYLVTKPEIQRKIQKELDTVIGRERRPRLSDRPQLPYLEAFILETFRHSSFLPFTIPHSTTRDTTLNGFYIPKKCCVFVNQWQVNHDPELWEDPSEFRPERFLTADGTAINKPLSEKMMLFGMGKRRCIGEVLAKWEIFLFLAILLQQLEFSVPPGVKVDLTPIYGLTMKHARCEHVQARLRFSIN

Data set [4] in a line: inhibitors of clade B AD8 Env fusion, dose response, cell-based, cherry-pick (AID 652062).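 Further: luciferase signal from cell-cell fusion driven by HIV-1 clade B AD8 Env; potency is for inhibitors of fusion seen as a drop in luminescence.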 The class given is functional.
A short description of data set [5]: off-target signal loss in HeLa-CEM21 co-culture – HeLa F-luc CTL cells, cherry-picked, counter-screen for HIV-1 Env fusion inhibitor project, dose response (AID 652040).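 Further: potency for signal decrease marking cytotoxic or nonspecific inhibition.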 Format: functional, cell-based.
The target of the next data set is Cytochrome P450 2D6 (Homo sapiens, UniProt P10635).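 Further: CYP2D6 member of a cytochrome P450 panel assay.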
A further data set concerns the target Cytochrome P450 2C19 (Homo sapiens, UniProt P33261). Nature of the data set: Cytochrome panel assay with activity outcomes. Panel member name: p450-cyp2c19 Compounds with AC50 equal or less than 10 uM are considered active. Format: functional.
A further data set deals with HeLa. Nature of the data set: HeLa cell cytotoxicity, dose response, cytotoxicity control for MITF activator project, CellTiter-Glo luminescence, cherry-pick samples (AID 540259). The class given is functional, cell-based. To be noted: Homo sapiens.
The test system of data set [6] is HEK293. Nature of the data set: cells. The settings on record: Homo sapiens. The class given is functional, cell-based.
Data set [7] has as its system HEK293. Put plainly: NOD2 signaling inhibitors in MDP-stimulated cells, cell-based, uHTS, luminescence (AID 2001). The class given is functional. To be noted: Homo sapiens.
In data set [8] the test system is HEK293. Nature of the data set: cells. Format: functional, cell-based. To be noted: Homo sapiens. The source holds these as a separate data set.
Data set [9] has as its system HEK293. Put plainly: NOD1 signaling inhibitors, primary screen, cell-based, luminescence, uHTS (AID 1578). The class given is functional. To be noted: Homo sapiens.
For data set [10], the target named is Glucose-6-phosphate 1-dehydrogenase (Homo sapiens, UniProt P11413). Put plainly: human G6PD enzyme inhibitors, dose response, selectivity assay for P. falciparum G6PD inhibitor project, biochemical, fluorescence (AID 504792). Format: functional.
Data set [11] deals with T2, Zinc finger protein mex-5 (Caenorhabditis elegans, UniProt Q9XUB2).
T2 sequence (Q9XUB2 whole entry): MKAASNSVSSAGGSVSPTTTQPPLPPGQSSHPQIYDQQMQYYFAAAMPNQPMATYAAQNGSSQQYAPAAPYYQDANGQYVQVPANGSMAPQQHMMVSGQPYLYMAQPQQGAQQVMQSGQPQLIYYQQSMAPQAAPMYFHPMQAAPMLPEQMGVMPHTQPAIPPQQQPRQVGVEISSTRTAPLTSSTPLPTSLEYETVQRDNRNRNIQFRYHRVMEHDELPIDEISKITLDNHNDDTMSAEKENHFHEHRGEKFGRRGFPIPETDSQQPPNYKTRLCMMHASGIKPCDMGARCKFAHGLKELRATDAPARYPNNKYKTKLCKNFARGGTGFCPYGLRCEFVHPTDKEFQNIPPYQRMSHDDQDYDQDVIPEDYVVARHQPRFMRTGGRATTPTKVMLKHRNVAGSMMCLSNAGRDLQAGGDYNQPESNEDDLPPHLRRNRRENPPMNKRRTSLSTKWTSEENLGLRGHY
Nature of the data set: MEX-5/TCR-2 RNA interaction inhibitors, dose response, biochemical, C. elegans, fluorescence polarization (AID 1960). For orientation: In fluorescence polarisation assays a small probe gives low polarisation when free and higher when bound to something large.

Data set [12] deals with T3, RNA-binding protein pos-1 (Caenorhabditis elegans, UniProt G5EF15).
T3 sequence (G5EF15 whole entry): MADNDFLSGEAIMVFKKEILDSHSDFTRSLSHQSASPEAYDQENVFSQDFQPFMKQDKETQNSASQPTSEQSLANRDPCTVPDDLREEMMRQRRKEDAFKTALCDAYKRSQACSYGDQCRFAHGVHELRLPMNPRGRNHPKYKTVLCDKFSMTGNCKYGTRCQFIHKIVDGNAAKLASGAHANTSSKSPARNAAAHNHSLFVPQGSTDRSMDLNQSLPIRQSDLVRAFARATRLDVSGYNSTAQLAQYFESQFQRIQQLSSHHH
Put plainly: inhibitors of POS-1/mex-3 RNA binding, dose response, biochemical, fluorescence polarization (AID 1964).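 Further: purified POS-1 fused to maltose binding protein made in E. coli; potency of compounds blocking POS-1 binding to fluorescent RNA.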

Data set [13] concerns the target T4, Rac GTPase-activating protein 1 (Homo sapiens, UniProt Q9H0H5).
T4 sequence (Q9H0H5 whole entry): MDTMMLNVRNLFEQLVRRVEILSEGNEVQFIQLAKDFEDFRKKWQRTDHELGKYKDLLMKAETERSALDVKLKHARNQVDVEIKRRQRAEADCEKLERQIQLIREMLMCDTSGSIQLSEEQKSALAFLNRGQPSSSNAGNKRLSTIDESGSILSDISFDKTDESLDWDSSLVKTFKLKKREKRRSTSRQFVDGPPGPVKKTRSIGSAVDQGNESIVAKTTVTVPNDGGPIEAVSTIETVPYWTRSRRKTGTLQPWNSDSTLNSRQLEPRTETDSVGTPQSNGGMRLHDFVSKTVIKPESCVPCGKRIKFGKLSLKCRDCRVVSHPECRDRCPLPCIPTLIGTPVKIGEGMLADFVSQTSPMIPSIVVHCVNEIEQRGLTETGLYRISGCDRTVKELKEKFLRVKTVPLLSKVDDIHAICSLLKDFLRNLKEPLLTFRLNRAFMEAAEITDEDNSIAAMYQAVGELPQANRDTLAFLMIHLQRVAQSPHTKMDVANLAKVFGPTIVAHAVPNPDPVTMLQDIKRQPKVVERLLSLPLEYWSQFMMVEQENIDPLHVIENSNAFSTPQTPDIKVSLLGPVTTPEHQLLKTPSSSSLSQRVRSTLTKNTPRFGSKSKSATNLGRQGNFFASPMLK
Put plainly: MgcRacGAP GTPase-activating activity inhibitors, confirmation, biochemical, ADP Hunter fluorescence, primary and confirmatory (AID 624330). Format: functional.

For the next data set, the target named is Cytochrome P450 2C9 (Homo sapiens, UniProt P11712).
For another data set, the target named is Cytochrome P450 3A4 (Homo sapiens, UniProt P08684).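 Further: CYP3A4 tested as one member of a cytochrome P450 panel screen.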
A further data set concerns the target Beta-galactosidase (Escherichia coli, UniProt Q8VNN2). Nature of the data set: PubChem AID 485352. Format: functional.
Data set [14] addresses T5, Type-1 angiotensin II receptor (Homo sapiens, UniProt P30556).
T5 sequence (P30556 whole entry): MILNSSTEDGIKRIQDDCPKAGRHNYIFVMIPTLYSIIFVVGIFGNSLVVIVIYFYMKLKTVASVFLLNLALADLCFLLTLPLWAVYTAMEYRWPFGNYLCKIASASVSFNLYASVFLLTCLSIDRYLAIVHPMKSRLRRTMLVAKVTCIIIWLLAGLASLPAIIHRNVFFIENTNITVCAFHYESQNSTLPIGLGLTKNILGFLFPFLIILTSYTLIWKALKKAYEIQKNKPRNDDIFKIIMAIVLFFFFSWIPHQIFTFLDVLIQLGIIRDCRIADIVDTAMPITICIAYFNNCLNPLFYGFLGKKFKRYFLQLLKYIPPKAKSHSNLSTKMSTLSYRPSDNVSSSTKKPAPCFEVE
Nature of the data set: AT1 receptor antagonists, dose response, selectivity assay for APJ receptor antagonist project, cell-based, uHTS hits (AID 463214).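 Further: antagonist potency against angiotensin II stimulated AT1 response.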 Format: functional.

Data set [15] addresses T6, Oxysterols receptor LXR-beta (Homo sapiens, UniProt P55055).
T6 sequence (P55055 whole entry): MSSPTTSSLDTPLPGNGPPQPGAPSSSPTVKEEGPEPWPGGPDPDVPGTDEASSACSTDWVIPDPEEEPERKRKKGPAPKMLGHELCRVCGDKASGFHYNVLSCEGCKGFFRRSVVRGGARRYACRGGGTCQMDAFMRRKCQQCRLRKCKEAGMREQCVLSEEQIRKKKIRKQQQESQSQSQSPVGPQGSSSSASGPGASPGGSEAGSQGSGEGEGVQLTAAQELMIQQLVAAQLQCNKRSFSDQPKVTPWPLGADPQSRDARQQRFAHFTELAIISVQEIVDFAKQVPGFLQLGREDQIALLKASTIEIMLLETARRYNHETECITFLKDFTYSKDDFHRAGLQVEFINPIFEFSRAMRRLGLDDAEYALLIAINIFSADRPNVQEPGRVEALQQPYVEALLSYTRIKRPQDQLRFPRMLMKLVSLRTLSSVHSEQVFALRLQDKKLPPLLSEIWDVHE
Format: functional, cell-based.

Chain of Cytochrome P450 2D6 (P10635 whole entry): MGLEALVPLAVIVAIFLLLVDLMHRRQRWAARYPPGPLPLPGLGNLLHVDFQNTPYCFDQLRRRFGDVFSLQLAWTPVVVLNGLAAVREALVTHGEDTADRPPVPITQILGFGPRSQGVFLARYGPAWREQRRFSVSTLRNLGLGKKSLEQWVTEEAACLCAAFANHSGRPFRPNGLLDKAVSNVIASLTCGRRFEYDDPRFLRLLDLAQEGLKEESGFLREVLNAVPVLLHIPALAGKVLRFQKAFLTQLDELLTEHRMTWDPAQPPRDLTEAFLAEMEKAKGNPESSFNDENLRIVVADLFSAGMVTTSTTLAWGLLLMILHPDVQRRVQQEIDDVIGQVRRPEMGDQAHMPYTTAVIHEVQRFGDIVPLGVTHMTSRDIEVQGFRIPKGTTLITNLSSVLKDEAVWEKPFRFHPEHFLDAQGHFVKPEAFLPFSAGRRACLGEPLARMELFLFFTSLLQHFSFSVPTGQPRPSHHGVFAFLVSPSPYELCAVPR
Chain of Glucose-6-phosphate 1-dehydrogenase (P11413 whole entry): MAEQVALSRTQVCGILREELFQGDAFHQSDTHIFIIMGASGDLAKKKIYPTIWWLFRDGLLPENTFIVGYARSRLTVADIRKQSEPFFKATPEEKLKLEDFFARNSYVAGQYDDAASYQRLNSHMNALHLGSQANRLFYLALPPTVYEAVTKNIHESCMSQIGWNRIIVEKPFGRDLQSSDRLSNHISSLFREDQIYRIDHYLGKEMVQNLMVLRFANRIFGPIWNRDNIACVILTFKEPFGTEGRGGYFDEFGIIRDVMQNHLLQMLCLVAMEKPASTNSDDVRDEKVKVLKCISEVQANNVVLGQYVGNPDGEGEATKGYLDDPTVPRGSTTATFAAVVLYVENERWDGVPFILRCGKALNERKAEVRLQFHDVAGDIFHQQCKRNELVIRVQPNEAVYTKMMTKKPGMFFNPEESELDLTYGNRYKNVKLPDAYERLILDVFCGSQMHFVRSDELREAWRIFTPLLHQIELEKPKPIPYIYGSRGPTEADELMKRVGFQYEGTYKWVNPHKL
Chain of Cytochrome P450 2C9 (P11712 whole entry): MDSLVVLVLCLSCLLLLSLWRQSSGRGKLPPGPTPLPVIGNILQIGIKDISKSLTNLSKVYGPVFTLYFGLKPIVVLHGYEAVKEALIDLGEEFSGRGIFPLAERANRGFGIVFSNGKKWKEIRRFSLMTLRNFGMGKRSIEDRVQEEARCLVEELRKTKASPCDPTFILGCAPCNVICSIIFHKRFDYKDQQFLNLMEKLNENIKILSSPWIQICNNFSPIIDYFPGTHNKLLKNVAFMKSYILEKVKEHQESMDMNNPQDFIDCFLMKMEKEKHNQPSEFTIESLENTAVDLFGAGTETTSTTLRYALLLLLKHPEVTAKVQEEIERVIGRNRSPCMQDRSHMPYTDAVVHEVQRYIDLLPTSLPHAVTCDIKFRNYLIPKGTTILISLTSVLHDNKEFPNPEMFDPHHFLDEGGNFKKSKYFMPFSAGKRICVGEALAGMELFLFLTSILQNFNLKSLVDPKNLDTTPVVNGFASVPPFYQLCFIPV
Chain of Cytochrome P450 2C19 (P33261 whole entry): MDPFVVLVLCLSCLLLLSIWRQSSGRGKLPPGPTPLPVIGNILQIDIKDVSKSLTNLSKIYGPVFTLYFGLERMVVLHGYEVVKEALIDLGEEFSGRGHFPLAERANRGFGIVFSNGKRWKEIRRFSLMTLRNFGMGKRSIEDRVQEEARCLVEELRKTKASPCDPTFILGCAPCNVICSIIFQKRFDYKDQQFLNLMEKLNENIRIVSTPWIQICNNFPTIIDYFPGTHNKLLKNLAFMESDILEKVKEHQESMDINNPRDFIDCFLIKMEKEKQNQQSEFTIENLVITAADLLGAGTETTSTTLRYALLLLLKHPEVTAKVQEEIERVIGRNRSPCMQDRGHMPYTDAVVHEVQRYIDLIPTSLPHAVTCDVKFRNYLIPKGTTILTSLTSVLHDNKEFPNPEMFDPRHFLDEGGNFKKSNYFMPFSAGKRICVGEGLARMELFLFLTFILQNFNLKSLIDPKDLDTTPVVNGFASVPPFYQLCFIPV
Chain of Beta-galactosidase (Q8VNN2 whole entry): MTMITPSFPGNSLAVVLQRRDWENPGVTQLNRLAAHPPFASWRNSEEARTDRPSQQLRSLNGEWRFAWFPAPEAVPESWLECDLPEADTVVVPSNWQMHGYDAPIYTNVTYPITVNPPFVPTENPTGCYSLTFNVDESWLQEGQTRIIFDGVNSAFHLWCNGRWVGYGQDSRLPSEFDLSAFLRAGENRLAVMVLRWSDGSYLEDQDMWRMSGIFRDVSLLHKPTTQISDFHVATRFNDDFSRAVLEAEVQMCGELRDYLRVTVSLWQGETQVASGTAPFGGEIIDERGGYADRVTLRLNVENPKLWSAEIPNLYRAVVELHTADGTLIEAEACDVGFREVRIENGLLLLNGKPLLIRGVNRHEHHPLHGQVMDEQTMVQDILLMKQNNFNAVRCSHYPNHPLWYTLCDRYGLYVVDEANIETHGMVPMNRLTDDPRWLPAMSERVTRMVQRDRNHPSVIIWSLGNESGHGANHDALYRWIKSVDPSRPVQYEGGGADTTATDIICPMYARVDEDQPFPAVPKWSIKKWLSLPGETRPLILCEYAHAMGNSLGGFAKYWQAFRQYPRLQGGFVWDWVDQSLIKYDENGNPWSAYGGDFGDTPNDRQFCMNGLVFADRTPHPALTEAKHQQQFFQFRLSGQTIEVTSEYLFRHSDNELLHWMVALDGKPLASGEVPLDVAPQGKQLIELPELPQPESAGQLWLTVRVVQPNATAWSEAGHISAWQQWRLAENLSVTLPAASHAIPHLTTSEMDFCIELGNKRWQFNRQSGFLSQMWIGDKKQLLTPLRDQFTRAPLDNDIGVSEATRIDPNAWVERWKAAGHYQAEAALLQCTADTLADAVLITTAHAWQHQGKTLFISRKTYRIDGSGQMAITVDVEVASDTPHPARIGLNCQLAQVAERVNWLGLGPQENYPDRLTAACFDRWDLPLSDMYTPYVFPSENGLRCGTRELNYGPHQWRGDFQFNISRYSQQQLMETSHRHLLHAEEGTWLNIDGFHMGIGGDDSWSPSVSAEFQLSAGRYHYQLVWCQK
Chain of Cytochrome P450 3A4 (P08684 whole entry): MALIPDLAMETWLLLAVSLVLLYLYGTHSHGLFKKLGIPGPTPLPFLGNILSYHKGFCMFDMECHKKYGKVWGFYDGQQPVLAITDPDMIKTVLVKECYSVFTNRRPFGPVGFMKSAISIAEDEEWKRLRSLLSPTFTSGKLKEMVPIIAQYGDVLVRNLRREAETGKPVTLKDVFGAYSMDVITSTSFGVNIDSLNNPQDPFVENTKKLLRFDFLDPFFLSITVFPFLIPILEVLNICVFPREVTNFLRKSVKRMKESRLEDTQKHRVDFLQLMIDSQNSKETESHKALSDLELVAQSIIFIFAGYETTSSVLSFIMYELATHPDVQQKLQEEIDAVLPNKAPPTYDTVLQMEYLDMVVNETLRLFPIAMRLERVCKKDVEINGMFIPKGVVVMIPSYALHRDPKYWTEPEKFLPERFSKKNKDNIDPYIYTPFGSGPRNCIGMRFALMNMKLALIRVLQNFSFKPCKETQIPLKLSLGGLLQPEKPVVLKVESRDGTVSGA

As for `COc1ccc2nc(NC(=O)C3CCN(S(=O)(=O)c4cccc5nsnc45)CC3)sc2c1`, the AC50 in data set [1] is 41.8 µM (active); in data set [2], 1.9 µM (active); in data set [3], 65.4 µM (active); at Cytochrome P450 1A2, 3.16 µM (inconclusive); in [4] it was 4 µM (active); in [5] it was > 70 µM (inactive). Also, the concentration at half-maximal activity (AC50) result at Cytochrome P450 2D6 is on record as “inconclusive”.

With `CC(C)CNC(=O)O`, the AC50 result at Cytochrome P450 2C19 and at Cytochrome P450 2D6 was “inconclusive” each time.

As for `Cc1cccc(C(=O)Nc2sc3c(c2C#N)CCCCC3)c1`, the AC50 with HeLa was 42.1 µM (active).

Turning to `COc1cc(C(=O)NCCOc2cc(C)ccc2C(C)C)cc(OC)c1OC`, the IC50 in the data set with HEK293 [6] is 12 µM (active); in the data set on HEK293 [7], 5.42 µM (active); in the data set on HEK293 [8], 5.52 µM (active). The concentration for a half-maximal effect (EC50) with HEK293 [9] is 3.03 µM (active).

`CC(C)Nc1oc(-c2cccc3ccccc23)nc1C#N`: the half-maximal activity concentration (AC50) in the data set with HeLa is 76.7 µM (active).

In the case of `CC1N(C)c2cccc3cccc(c23)N1C`, the IC50 in data set [10] was > 80 µM (inactive); in [13], 25 µM (active). The EC50 in [11] is > 300 µM (inconclusive); in data set [12] it was > 300 µM (not active).

On to `O=C(OCC(=O)c1ccc([N+](=O)[O-])cc1)/C(=C\c1ccc(Cl)cc1)NC(=O)c1ccccc1`, for which the IC50 in data set [10] was > 80 µM (inactive). Also, the AC50 on Cytochrome P450 2C9 was 0.0355 µM (inconclusive); on Cytochrome P450 3A4, 22.4 µM (inconclusive).

On to `COc1ccc(C(=O)CN(C(=O)c2ccc(Cl)cc2)N2C(=O)c3ccccc3C2=O)cc1`, for which the AC50 on Cytochrome P450 2C9 was 10 µM (inconclusive); on Cytochrome P450 2D6, “inconclusive”.

As to `COc1ccc(S(=O)(=O)NNc2nc(C)cc(C)n2)cc1Br`, the EC50 at Beta-galactosidase was > 40 µM (inactive). Moreover, the IC50 in data set [14] is listed as > 40 µM (not active).

Consider `Cc1ccnc(NC(=O)c2ccc(S(=O)(=O)N3CCC(C)CC3)cc2)c1`, for which, in the data set with HeLa, the AC50 was 128 µM (active).

`Cc1ccn(-c2cccc(-n3ccc(C)n3)n2)n1`: the EC50 in data set [15] was > 67.6 µM (inactive). Also, the AC50 in the data set with HeLa was 46.9 µM (active).

Usually AC50 stands for the concentration at which the activity in the assay is half-maximal. As a reminder, the IC50 is the concentration that inhibits the measured activity by half. A word on the EC50: it is the concentration giving half of the maximal effect.
